Test results reported in ChEMBL document CHEMBL6078726, “Synthesis and in vitro evaluation of novel compounds and discovery of a promising iodine-125 radioligand for purinergic P2X7 receptor (P2X7R)” (Bioorg Med Chem, 2025).
Activity calls are given as the source filed them. The calls are words filed in the database; no cut-off is given here.

Key:
[1] = target: T1, P2X purinoceptor 7 (Homo sapiens) (UniProt Q99572); test: Binding affinity to human P2X7 receptor expressed in HEK293 cell membrane assessed as inhibition of [125I]-4-(1-(1-(4-iodobenzoyl)piperidin-4-yl)-1H-imidazol-5-yl)phenyl isoquinoline-5-sulfonate binding to receptor at 1 uM incubated for 60 mins by high throughput screening relative to control; assay type: cell membranes
T1 sequence (whole entry): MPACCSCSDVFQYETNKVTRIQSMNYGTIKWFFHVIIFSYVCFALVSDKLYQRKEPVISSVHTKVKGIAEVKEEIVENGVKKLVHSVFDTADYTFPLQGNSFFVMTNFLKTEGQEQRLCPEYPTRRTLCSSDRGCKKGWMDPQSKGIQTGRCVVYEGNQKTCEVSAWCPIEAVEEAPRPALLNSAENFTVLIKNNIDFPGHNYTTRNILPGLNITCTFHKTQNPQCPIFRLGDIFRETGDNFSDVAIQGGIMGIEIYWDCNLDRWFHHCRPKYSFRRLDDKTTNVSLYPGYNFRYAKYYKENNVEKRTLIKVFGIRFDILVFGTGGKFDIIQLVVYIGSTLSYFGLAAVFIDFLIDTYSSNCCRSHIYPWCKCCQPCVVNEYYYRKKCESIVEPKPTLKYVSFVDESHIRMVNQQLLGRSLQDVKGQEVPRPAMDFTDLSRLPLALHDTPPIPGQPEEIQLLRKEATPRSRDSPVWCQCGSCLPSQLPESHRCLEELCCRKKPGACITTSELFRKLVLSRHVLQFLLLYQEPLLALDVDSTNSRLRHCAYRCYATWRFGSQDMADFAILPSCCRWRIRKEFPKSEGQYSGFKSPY

[2] = target: T1, P2X purinoceptor 7 (Homo sapiens); test: Antagonist activity at human P2X7 receptor expressed in HEK293 cells assessed as inhibition of BzATP-induced increase in fluorescence at 1 uM preincubated for 30 mins followed by BzATP addition and measured after 15 mins by YO-PRO-1 based inverted fluorescence microscopic analysis; assay type: cell-based; details: filed as antagonist, time 45.0 min
P2X purinoceptor 7 [3] = target: T2, P2X purinoceptor 7 (Homo sapiens, UniProt Q99572); test: Antagonist activity at human P2X7 receptor expressed in HEK293 cells assessed as inhibition of BzATP-induced increase in fluorescence preincubated for 30 mins followed by BzATP addition and measured after 15 mins by YO-PRO-1 based inverted fluorescence microscopic analysis; assay type: cell-based
T2 sequence (Q99572 whole entry): T1 sequence (whole entry)

[4] = target: T1, P2X purinoceptor 7 (Homo sapiens); test: Antagonist activity at human P2X7 receptor expressed in HEK293 cells assessed as inhibition of BzATP-induced inward current at 300 nM preincubated with compound for 3 mins followed by BzATP addition by whole-cell voltage clamp method; assay type: cell-based; parameters: scale not given: the % may be the effect or the level left; details: filed as antagonist
[5] = target: T1, P2X purinoceptor 7 (Homo sapiens); test: Antagonist activity at human P2X7 receptor expressed in HEK293 cells assessed as inhibition of BzATP-induced inward current at 300 nM preincubated with compound for 3 mins followed by BzATP addition and measured after 25 mins of washout by whole-cell voltage clamp method; assay type: cell-based; details: filed as antagonist, time 28.0 min
[6] = target: T3, P2X purinoceptor 2 (Rattus norvegicus) (UniProt P49653); test: Antagonist activity at rat P2X2 receptor expressed in HEK293 cells assessed as inhibition of BzATP-induced inward current at 1 uM by whole-cell voltage clamp method; assay type: cell-based
T3 sequence (whole entry): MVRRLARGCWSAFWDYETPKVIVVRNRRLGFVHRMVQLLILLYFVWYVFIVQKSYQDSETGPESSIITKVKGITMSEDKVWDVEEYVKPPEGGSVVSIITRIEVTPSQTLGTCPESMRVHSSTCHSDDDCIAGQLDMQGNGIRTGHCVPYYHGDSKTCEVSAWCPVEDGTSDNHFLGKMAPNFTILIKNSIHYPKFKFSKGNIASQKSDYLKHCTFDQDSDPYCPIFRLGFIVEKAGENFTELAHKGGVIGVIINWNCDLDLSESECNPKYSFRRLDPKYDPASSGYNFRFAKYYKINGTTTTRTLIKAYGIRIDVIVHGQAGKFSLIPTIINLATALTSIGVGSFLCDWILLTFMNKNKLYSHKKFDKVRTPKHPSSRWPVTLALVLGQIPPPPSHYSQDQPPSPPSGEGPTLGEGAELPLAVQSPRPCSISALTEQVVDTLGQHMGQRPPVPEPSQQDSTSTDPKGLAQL

P2X purinoceptor 7 [7] = target: T2, P2X purinoceptor 7; test: Binding affinity to human P2X7 receptor expressed in HEK293 cell membrane incubated for 60 mins in presence of [125I]-4-(1-(1-(4-iodobenzoyl)piperidin-4-yl)-1H-imidazol-5-yl)phenyl isoquinoline-5-sulfonate by competitive binding assay; assay type: cell membranes

Compound	inhibition [1] [%]	IC50 (P2X purinoceptor 7 [3]) [nM]	also measured
O=C(NCc1cccc(C(F)(F)F)c1Cl)[C@@H]1CCC(=O)N1C/C=C/I	45	–	–
O=C(c1ccc(I)cc1)N1CCC(n2cncc2-c2ccc(OS(=O)(=O)c3cccc4cnccc34)cc2)CC1	–	0.25	Activity [2]: Active; Activity [4]: 100%; Activity [5]: Active; Activity [6]: inactive; inhibition ([1]; filed as antagonist): 76%
O=C(OCc1cccc2cnccc12)c1cc(NC(=O)[C@H]2CCCN2)ccc1Cl	< 35	> 1000	–
COc1ccc(Cl)c(C(=O)NCc2cccc3cnccc23)c1	< 35	> 1000	–
O=C(NCc1cccc2cnccc12)c1cc(O)ccc1Cl	< 35	> 1000	–
O=C(NCc1cccc2cnccc12)c1cc(OCCF)ccc1Cl	< 35	> 1000	–
COc1ccc(C(=O)Nc2ccc(Cl)c(C(=O)OCc3cccc4cnccc34)c2)nc1	< 35	> 1000	–
COc1ccc(Cl)c(C(=O)NNC(=O)c2cccc3ncccc23)c1	< 35	> 1000	–
CNCC(=O)Nc1ccc(Cl)c(C(=O)NCc2cccc3cnccc23)c1	< 35	> 1000	–
O=C(c1ccc(Br)cc1)N1CCC(n2cncc2-c2ccc(OS(=O)(=O)c3cccc4cnccc34)cc2)CC1	–	–	inhibition ([1]; filed as antagonist): 71%; IC50 (P2X purinoceptor 7 [7]): 7.16 nM
O=C1CNC(C(=O)Nc2ccc(Cl)c(C(=O)NCc3cccc4cnccc34)c2)CN1 (stereo unspecified)	< 35	> 1000	–
O=C(c1ccc([N+](=O)[O-])cc1)N1CCC(n2cncc2-c2ccc(OS(=O)(=O)c3cccc4cnccc34)cc2)CC1	–	–	inhibition ([1]; filed as antagonist): 74%; IC50 (P2X purinoceptor 7 [7]): 7.91 nM
COc1ccc(Cl)c(C(=O)NNC(=O)[C@H]2CC[C@H](C(F)(F)F)CC2)c1	< 35	> 1000	–
NCC(=O)Nc1ccc(Cl)c(C(=O)OCc2cccc3cnccc23)c1	< 35	> 1000	–
